Measured values reported in patent publication US20230365530A1, “QUINAZOLINE-2,4-DIAMINE DERIVATIVE AND PHARMACEUTICAL COMPOSITION FOR PREVENTING OR TREATING CANCER COMPRISING SAME AS ACTIVE INGREDIENT” (THE ASEAN FOUNDATION, priority 2020, published 2023).

What follows are compounds tested against EHMT2 (Euchromatic histone-lysine N-methyltransferase 2) (Homo sapiens (Human), UniProt Q96KQ7) (assay: EHMT2 enzyme inhibition, LANCE TR-FRET). Details: histone H3 peptide, 1 hour at room temperature.
EHMT2 (Euchromatic histone-lysine N-methyltransferase 2), sequence (Q96KQ7 whole entry): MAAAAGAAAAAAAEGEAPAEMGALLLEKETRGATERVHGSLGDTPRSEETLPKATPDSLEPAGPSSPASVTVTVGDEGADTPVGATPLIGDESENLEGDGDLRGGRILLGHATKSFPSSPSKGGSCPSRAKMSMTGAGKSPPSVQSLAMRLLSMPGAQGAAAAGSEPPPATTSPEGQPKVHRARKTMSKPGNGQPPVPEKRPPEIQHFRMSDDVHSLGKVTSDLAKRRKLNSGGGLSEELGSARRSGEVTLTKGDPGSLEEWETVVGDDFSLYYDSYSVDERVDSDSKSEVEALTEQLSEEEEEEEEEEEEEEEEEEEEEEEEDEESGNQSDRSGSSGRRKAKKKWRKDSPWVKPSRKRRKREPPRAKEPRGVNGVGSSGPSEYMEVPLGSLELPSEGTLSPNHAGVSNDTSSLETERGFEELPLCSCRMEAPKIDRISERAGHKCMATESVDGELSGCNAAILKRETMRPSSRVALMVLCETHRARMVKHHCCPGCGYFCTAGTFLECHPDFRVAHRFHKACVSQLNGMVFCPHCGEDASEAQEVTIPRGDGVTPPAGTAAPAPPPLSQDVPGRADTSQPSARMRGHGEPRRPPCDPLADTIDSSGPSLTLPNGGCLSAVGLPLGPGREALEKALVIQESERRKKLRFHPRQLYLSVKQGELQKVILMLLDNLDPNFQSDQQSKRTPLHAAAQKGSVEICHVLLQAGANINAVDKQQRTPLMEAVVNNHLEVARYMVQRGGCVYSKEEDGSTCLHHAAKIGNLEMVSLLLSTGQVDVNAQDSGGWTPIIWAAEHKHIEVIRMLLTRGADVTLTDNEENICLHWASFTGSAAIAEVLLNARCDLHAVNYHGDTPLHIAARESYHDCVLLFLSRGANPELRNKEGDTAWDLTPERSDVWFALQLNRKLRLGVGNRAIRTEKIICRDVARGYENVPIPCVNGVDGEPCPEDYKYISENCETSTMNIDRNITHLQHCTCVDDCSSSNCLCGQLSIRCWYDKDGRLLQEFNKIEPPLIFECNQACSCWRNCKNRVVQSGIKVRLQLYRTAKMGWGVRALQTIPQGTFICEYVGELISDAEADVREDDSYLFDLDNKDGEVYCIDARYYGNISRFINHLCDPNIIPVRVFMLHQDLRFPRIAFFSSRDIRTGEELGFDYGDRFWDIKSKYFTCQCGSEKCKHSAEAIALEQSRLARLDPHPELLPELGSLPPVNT
Assay type: biochemical
Description: In order to analyze the enzyme inhibitory efficacy of the compounds of Examples 1 to 89, EHMT2 (Euchromatic histone-lysine N-methyltransferase 2) enzyme activity was measured using the LANCE TR-FRET™ analysis method of Perkin Elmer. When the EHMT2 enzyme is activated, the 9th lysine residue of the biotinylated-histone peptide is methylated and the EU-conjugated antibody is combined to the methylated histone peptide. Then, when the complex is irradiated with light of excitation wavelength, the complex emits light having a wavelength of 665 nm through FRET phenomenon. Accordingly, fluorescence was measured, and IC50 values were calculated through a software to evaluate the EHMT2 enzyme activity inhibitory effect of the compounds of Examples 1 to 89.
Specific experimental methods are as follows. First, the compounds of Examples 1 to 89 of 1 nM to 100 μM (4× conc.) were put into a 384 well plate (25 μL/well), and 2 μM EEMT2/G9a enzyme (4× conc.) was put into the 384 well plate (25 μL/well). The plate was then centrifuged at 1,500 rpm for 5 seconds after sealing the plate with plate sealing foil. After incubating the EHMT2/G9a enzyme, SAM, and the compounds of Examples above at room temperature for 10 minutes, 2 μM histone H3 peptide (4× conc.) was added to the 384-well plate (25 μL/well). After sealing the plate with plate sealing foil and centrifuging at 1,500 rpm for 5 seconds, an enzymatic reaction was performed at room temperature for 1 hour. Upon completion of the enzyme reaction, 5 μL each of 200 nM Ulight™-Streptavidin (4× conc.) and 8 nM Eu-antibody (4× conc.) was added to each well of the plate. The plate was sealed with plate sealing foil, centrifuged at 1,500 rpm for 5 seconds and reacted at room temperature for 1 hour. The signal values were measured with Envision (Ex 320 nm, Em 665 nm), and all background values obtained by reacting without enzyme were deleted from the measured raw data values. Then, the EHMT2 enzyme activity inhibitory effect of the compounds of Examples 1 to 89 was converted into % values, and compared with the EHMT2 activity when treated with 4% DMSO vehicle (=0 nM compound) as 100%.

Row | Compound | IC50 [nM]
1 | COc1cc2c(NC3CCN(C(C)C)CC3)nc(N(C)C)nc2cc1C#CCCN(C)C [Example 14] | < 100
2 | COc1cc2c(NC3CCN(C(C)C)CC3)nc(N3CCCC3)nc2cc1C#CCCN1CCCC1 [Example 42, N-(1-isopropylpiperidine-4-yl)-6-methoxy-2-(pyrrolidine-1-yl)-7-(4-(pyrrolidine-1-yl)-1-butyne-1-yl)quinazoline-4-amine] | < 100
3 | COc1cc2c(NC3CCN(C(C)C)CC3)nc(N(C)C)nc2cc1C#CCCN1CCCC1 [Example 49, N4-(1-isopropylpiperidine-4-yl)-6-methoxy-N2,N2-dimethyl-7-(4-(pyrrolidine-1-yl)-1-butyne-1-yl)quinazoline-2,4-diamine] | < 100
4 | COc1cc2c(NC3CCN(C4CC4)CC3)nc(N3CCCN(C)CC3)nc2cc1C#CCCN1CCCC1 [Example 56, N-(1-cyclopropylpiperidine-4-yl)-6-methoxy-2-(4-methyl-1,4-diazepane-1-yl)-7-(4-(pyrrolidine-1-yl)-1-butyne-1-yl)quinazoline-4-amine] | < 100
5 | CCCN1CCC(Nc2nc(N3CCCCC3)nc3cc(C#CCCN4CCCC4)c(OC)cc23)CC1 [Example 67, 6-methoxy-2-(piperidine-1-yl)-N-(1-propylpiperidine-4-yl)-7-(4-(pyrrolidine-1-yl)-1-butyne-1-yl)quinazoline-4-amine] | < 100
6 | CCCN1CCC(Nc2nc(N3CCCC3)nc3cc(C#CCCN4CCCC4)c(OC)cc23)CC1 [Example 68, 6-methoxy-N-(1-propylpiperidine-4-yl)-2-(pyrrolidine-1-yl)-7-(4-(pyrrolidine-1-yl)-1-butyne-1-yl)quinazoline-4-amine] | < 100
7 | COc1cc2c(NC3CCN(CCO)CC3)nc(N3CCCCC3)nc2cc1C#CCCN1CCCC1 [Example 69, 2-(4-((6-methoxy-2-(piperidine-1-yl)-7-(4-(pyrrolidine-1-yl)-1-butyne-1-yl)quinazoline-4-yl)amino)piperidine-1-yl)ethanol] | < 100
8 | COc1cc2c(NC3CCN(CCO)CC3)nc(N3CCCC3)nc2cc1C#CCCN1CCCC1 [Example 70, 2-(4-((6-methoxy-2-(pyrrolidine-1-yl)-7-(4-(pyrrolidine-1-yl)-1-butyne-1-yl)quinazoline-4-yl)amino)piperidine-1-yl)ethanol] | < 100
9 | COc1cc2c(NCc3cccnc3)nc(N3CCCC3)nc2cc1C#CCCN1CCCC1 [Example 71, 6-methoxy-N-(pyridine-3-ylmethyl)-2-(pyrrolidine-1-yl)-7-(4-(pyrrolidine-1-yl)-1-butyne-1-yl)quinazoline-4-amine] | 100 to 1000
10 | CCN1CCC(Nc2nc(N3CC[C@H](F)C3)nc3cc(C#CCCN4CCCC4)c(OC)cc23)CC1 [Example 72, (S)-N-(1-ethylpiperidine-4-yl)-2-(3-fluoropyrrolidine-1-yl)-6-methoxy-7-(4-(pyrrolidine-1-yl)-1-butyne-1-yl)quinazoline-4-amine] | < 100
11 | COc1cc2c(NC3CC(C)(C)NC(C)(C)C3)nc(N3CCCC3)nc2cc1C#CCCN1CCCC1 [Example 73, 6-methoxy-2-(pyrrolidine-1-yl)-7-(4-(pyrrolidine-1-yl)-1-butyne-1-yl)-N-(2,2,6,6-tetramethylpiperidine-4-yl)quinazoline-4-amine] | < 100
12 | COc1cc2c(NC3CCN(C4CC4)CC3)nc(N3CC[C@@H](F)C3)nc2cc1C#CCCN1CCCC1 [Example 74, (R)-N-(1-cyclopropylpiperidine-4-yl)-2-(3-fluoropyrrolidine-1-yl)-6-methoxy-7-(4-(pyrrolidine-1-yl)-1-butyne-1-yl)quinazoline-4-amine] | 100 to 1000
13 | COc1cc2c(NC3CCN(C4CC4)CC3)nc(N3CC[C@H](F)C3)nc2cc1C#CCCN1CCCC1 [Example 75, (S)-N-(1-cyclopropylpiperidine-4-yl)-2-(3-fluoropyrrolidine-1-yl)-6-methoxy-7-(4-(pyrrolidine-1-yl)-1-butyne-1-yl)quinazoline-4-amine] | < 100
14 | COc1cc2c(NC3CCN(C4CC4)CC3)nc(N3CC[C@@H](F)C3)nc2cc1C#CCCN(C)C [Example 76, (R)-N-(1-cyclopropylpiperidine-4-yl)-7-(4-(dimethylamino)-1-butyne-1-yl)-2-(3-fluoropyrrolidine-1-yl)-6-methoxyquinazoline-4-amine] | 1000 to 10000
15 | CCN1CCC(Nc2nc(N3CC[C@@H](F)C3)nc3cc(C#CCCN4CCCC4)c(OC)cc23)CC1 [Example 77, (R)-N-(1-ethylpiperidine-4-yl)-2-(3-fluoropyrrolidine-1-yl)-6-methoxy-7-(4-(pyrrolidine-1-yl)-1-butyne-1-yl)quinazoline-4-amine] | < 100
16 | CCN1CCC(Nc2nc(N3CCCC3)nc3cc(C#CCCN4CC[C@H](F)C4)c(OC)cc23)CC1 [Example 78, (S)-N-(1-ethylpiperidine-4-yl)-7-(4-(3-fluoropyrrolidine-1-yl)-1-butyne-1-yl)-6-methoxy-2-(pyrrolidine-1-yl)quinazoline-4-amine] | < 100
17 | COc1cc2c(NCCN(C)C)nc(N3CC[C@H](F)C3)nc2cc1C#CCCN1CCCC1 [Example 79, (S)-N1-(2-(3-fluoropyrrolidine-1-yl)-6-methoxy-7-(4-(pyrrolidine-1-yl)-1-butyne-1-yl)quinazoline-4-yl)-N2,N2-dimethylethane-1,2-diamine] | 100 to 1000
18 | COc1cc2c(NCCN(C)C)nc(N3CC[C@@H](F)C3)nc2cc1C#CCCN1CCCC1 [Example 80, (R)-N1-(2-(3-fluoropyrrolidine-1-yl)-6-methoxy-7-(4-(pyrrolidine-1-yl)-1-butyne-1-yl)quinazoline-4-yl)-N2,N2-dimethylethane-1,2-diamine] | 100 to 1000
19 | CNc1nc(N2CCCC2)nc2cc(C#CCCN3CCCC3)c(OC)cc12 [Example 81, 6-methoxy-N-methyl-2-(pyrrolidine-1-yl)-7-(4-(pyrrolidine-1-yl)-1-butyne-1-yl)quinazoline-4-amine] | 100 to 1000
20 | CCCN1CCC(Nc2nc(N(C)C)nc3cc(C#CCCN4CCCC4)c(OC)cc23)CC1 [Example 83, 6-methoxy-N2,N-dimethyl-N4-(1-propylpiperidine-4-yl)-7-(4-(pyrrolidine-1-yl)-1-butyne-1-yl)quinazoline-2,4-diamine] | < 100
21 | CCCN1CCC(Nc2nc(N3CC[C@@H](F)C3)nc3cc(C#CCCN4CCCC4)c(OC)cc23)CC1 [Example 84, (R)-2-(3-fluoropyrrolidine-1-yl)-6-methoxy-N-(1-propylpiperidine-4-yl)-7-(4-(pyrrolidine-1-yl)-1-butyne-1-yl)quinazoline-4-amine] | < 100
22 | COc1cc2c(NC3CCN(C(C)C)CC3)nc(N3CCCC3)nc2cc1/C=C/CCN1CCCC1 [Example 85, (E)-N-(1-isopropylpiperidine-4-yl)-6-methoxy-2-(pyrrolidine-1-yl)-7-(4-(pyrrolidine-1-yl)-1-butene-1-yl)quinazoline-4-amine] | < 100
23 | COc1cc2c(NC3CCN(C(C)C)CC3)nc(N3CCCC3)nc2cc1/C=C/CCN(C)C [Example 86, (E)-7-(4-(dimethylamino)-1-butene-1-yl)-N-(1-isopropylpiperidine-4-yl)-6-methoxy-2-(pyrrolidine-1-yl)quinazoline-4-amine] | 100 to 1000
24 | COc1cc2c(NC3CCN(CCO)CC3)nc(N(C)C)nc2cc1C#CCCN1CCCC1 [Example 87, 2-(4-((2-(dimethylamino)-6-methoxy-7-(4-(pyrrolidine-1-yl)-1-butyne-1-yl)quinazoline-4-yl)amino)piperidine-1-yl) ethanol] | < 100
25 | COc1cc2c(NC3CCN(C(C)C)CC3)nc(Nc3cnn(C)c3)nc2cc1C#CCCN1CCCC1 [Example 88, N4-(1-isopropylpiperidine-4-yl)-6-methoxy-N2-(1-methyl-1H-pyrazole-4-yl)-7-(4-(pyrrolidine-1-yl)-1-butyne-1-yl)quinazoline-2,4-diamine] | 100 to 1000
26 | COc1cc2c(NC3CCN(CCO)CC3)nc(N3CC[C@@H](F)C3)nc2cc1C#CCCN1CCCC1 [Example 89] | < 100

The compounds below were run on pancreatic cancer cell line Miapaca 2 (assay: Cancer cell growth inhibition test, CellTiter-glo). Details: Homo sapiens, MIA PaCa-2, Miapaca 2 cells, 72 hours.
Assay type: cell-based
Description: In order to confirm the effect of reducing cell viability by inhibiting EHMT2 by the compounds of Examples in cells, the effect of inhibiting cancer cell growth was analyzed using CellTiter-glo™ analysis (Promega, cat. G7573) method. Specifically, the amount of ATP in living cells was measured and IC50 values were calculated using software to compare the inhibitory effect of the compounds of Examples on cell viability. First, the pancreatic cancer cell line Miapaca 2 was placed in a 96-well cell culture plate at the density of 1×10^3 cells/well and cultured overnight, and then each well of the plate was treated with 1 nM to 100 μM of the compounds of Examples 1 to 89 at each concentration for 72 hours (The final concentration of DMSO in each well was 0.5% or less). CellTiter-glo 2.0 reagent was mixed with a medium at 20% of the amount of the medium, reacted at room temperature for 10 minutes, and then 80 μL of the mixture was transferred to each well of a 96-well plate, followed by measuring the degree of luminescence.

Row | Compound | IC50 [nM]
27 | COc1cc2c(NC3CCN(C(C)C)CC3)nc(N(C)C)nc2cc1C#CCCN(C)C [Example 14] | 338
28 | COc1cc2c(NC3CCN(C(C)C)CC3)nc(N3CCCC3)nc2cc1C#CCCN1CCCC1 [Example 42, N-(1-isopropylpiperidine-4-yl)-6-methoxy-2-(pyrrolidine-1-yl)-7-(4-(pyrrolidine-1-yl)-1-butyne-1-yl)quinazoline-4-amine] | 304
29 | COc1cc2c(NC3CCN(C(C)C)CC3)nc(N(C)C)nc2cc1C#CCCN1CCCC1 [Example 49, N4-(1-isopropylpiperidine-4-yl)-6-methoxy-N2,N2-dimethyl-7-(4-(pyrrolidine-1-yl)-1-butyne-1-yl)quinazoline-2,4-diamine] | 333
30 | COc1cc2c(NC3CCN(C4CC4)CC3)nc(N3CCCN(C)CC3)nc2cc1C#CCCN1CCCC1 [Example 56, N-(1-cyclopropylpiperidine-4-yl)-6-methoxy-2-(4-methyl-1,4-diazepane-1-yl)-7-(4-(pyrrolidine-1-yl)-1-butyne-1-yl)quinazoline-4-amine] | 192
